Data reported in ChEMBL document CHEMBL4814047, “Design, synthesis and biological activity of N-(amino)piperazine-containing benzothiazinones against Mycobacterium tuberculosis” (Eur J Med Chem, 2021).
In brackets after ≈: the same amount, converted by molar mass.

Tests used:
[1] = system: Mycobacterium tuberculosis; test: Antimycobacterial activity against multidrug resistance Mycobacterium tuberculosis 16995 clinical isolate incubated for 7 days by microplate alamar blue assay; assay type: functional; settings: Mycobacterium tuberculosis, 16995, 168 h; time 7 day
[2] = system: Mycobacterium tuberculosis; test: Antimycobacterial activity against multidrug resistance Mycobacterium tuberculosis 16833 clinical isolate incubated for 7 days by microplate alamar blue assay; assay type: functional; settings: Mycobacterium tuberculosis, 16833, 168 h; time 7 day
[3] = Selectivity index, ratio of CC50 for African green monkey Vero cells to MIC for multidrug resistance Mycobacterium tuberculosis 16995 clinical isolate; assay type: toxicity; settings: read-out: Selectivity Index

SMILES | MIC [1] [µg/mL] | MIC [2] [µg/mL] | selectivity ratio [3]
O=c1nc(N2CCN(NCc3ccc(F)cc3)CC2)sc2c([N+](=O)[O-])cc(C(F)(F)F)cc12 | < 0.016 | < 0.016 | > 4000
O=c1nc(N2CCN(NCC3CCCCC3)CC2)sc2c([N+](=O)[O-])cc(C(F)(F)F)cc12 | < 0.016 | < 0.016 | > 1830
CN(CC1CCCCC1)N1CCN(c2nc(=O)c3cc(C(F)(F)F)cc([N+](=O)[O-])c3s2)CC1 | < 0.016 | < 0.016 | > 4000
CC(NN1CCN(c2nc(=O)c3cc(C(F)(F)F)cc([N+](=O)[O-])c3s2)CC1)c1ccc(OC(F)(F)F)cc1 (configuration not stated) | 0.0177 (≈ 0.0314 µM) | 0.0196 (≈ 0.0348 µM) | > 3620
O=c1nc(N2CCN(NCc3ccc(OC(F)(F)F)cc3)CC2)sc2c([N+](=O)[O-])cc(C(F)(F)F)cc12 | < 0.016 | < 0.016 | > 4000
O=c1nc(N2CCN(NCc3ccc(Br)cc3)CC2)sc2c([N+](=O)[O-])cc(C(F)(F)F)cc12 | < 0.016 | < 0.016 | > 4000
O=c1nc(N2CCN(Nc3ccc(C(F)(F)F)cc3)CC2)sc2c([N+](=O)[O-])cc(C(F)(F)F)cc12 | < 0.016 | < 0.016 | > 4000
O=c1nc(N2CCN(/N=C/c3ccc(OC(F)(F)F)cc3)CC2)sc2c([N+](=O)[O-])cc(C(F)(F)F)cc12 | < 0.016 | < 0.016 | > 4000
CC(C)CN(CC(C)C)N1CCN(c2nc(=O)c3cc(C(F)(F)F)cc([N+](=O)[O-])c3s2)CC1 | < 0.016 | < 0.016 | > 4000
CN(c1ccc(OC(F)(F)F)cc1)N1CCN(c2nc(=O)c3cc(C(F)(F)F)cc([N+](=O)[O-])c3s2)CC1 | < 0.016 | < 0.016 | > 4000
O=c1nc(N2CCN(NCc3cccc(C(F)(F)F)c3)CC2)sc2c([N+](=O)[O-])cc(C(F)(F)F)cc12 | < 0.016 | < 0.016 | > 4000
O=c1nc(N2CCN(NCc3ccc(C(F)(F)F)cc3)CC2)sc2c([N+](=O)[O-])cc(C(F)(F)F)cc12 | < 0.016 | < 0.016 | > 4000
CO[C@H]1/C=C/O[C@@]2(C)Oc3c(C)c(O)c4c(O)c(c(/C=N/N5CCN(C)CC5)c(O)c4c3C2=O)NC(=O)/C(C)=C\C=C\[C@H](C)[C@H](O)[C@@H](C)[C@@H](O)[C@@H](C)[C@H](OC(C)=O)[C@@H]1C [RIFAMPIN] | > 10 | > 10 | 
O=c1nc(N2CCN(CC3CCCCC3)CC2)sc2c([N+](=O)[O-])cc(C(F)(F)F)cc12 [MACOZINONE] | < 0.016 | < 0.016 | > 4000
O=c1nc(N2CCN(NC3CCCCC3)CC2)sc2c([N+](=O)[O-])cc(C(F)(F)F)cc12 | < 0.016 | < 0.016 | > 4000
COc1ccc(CNN2CCN(c3nc(=O)c4cc(C(F)(F)F)cc([N+](=O)[O-])c4s3)CC2)cc1 | 0.0271 (≈ 0.0547 µM) | < 0.016 | > 2360
CC(C)(C)c1ccc(CNN2CCN(c3nc(=O)c4cc(C(F)(F)F)cc([N+](=O)[O-])c4s3)CC2)cc1 | < 0.016 | < 0.016 | > 4000
O=c1nc(N2CCN(NCc3cc(F)cc(F)c3)CC2)sc2c([N+](=O)[O-])cc(C(F)(F)F)cc12 | < 0.016 | < 0.016 | > 4000
O=c1nc(N2CCN(Nc3ccc(OC(F)(F)F)cc3)CC2)sc2c([N+](=O)[O-])cc(C(F)(F)F)cc12 | < 0.016 | < 0.016 | > 4000
CON=C1CCC(N(C)N2CCN(c3nc(=O)c4cc(C(F)(F)F)cc([N+](=O)[O-])c4s3)CC2)CC1 (configuration not stated) | < 0.016 | < 0.016 | > 4000
O=c1nc(N2CCN(NCCC3CCCCC3)CC2)sc2c([N+](=O)[O-])cc(C(F)(F)F)cc12 | 0.0294 (≈ 0.0606 µM) | 0.0357 (≈ 0.0735 µM) | > 2180
Cc1cccc(F)c1CNN1CCN(c2nc(=O)c3cc(C(F)(F)F)cc([N+](=O)[O-])c3s2)CC1 | 0.0163 (≈ 0.0328 µM) | 0.0152 (≈ 0.0306 µM) | > 3930
CC(c1ccc(OC(F)(F)F)cc1)N(C)N1CCN(c2nc(=O)c3cc(C(F)(F)F)cc([N+](=O)[O-])c3s2)CC1 (configuration not stated) | < 0.016 | < 0.016 | > 4000
Cc1ccc(CNN2CCN(c3nc(=O)c4cc(C(F)(F)F)cc([N+](=O)[O-])c4s3)CC2)cc1 | < 0.016 | < 0.016 | > 4000
O=c1nc(N2CCN(NCc3ccc(Cl)cc3)CC2)sc2c([N+](=O)[O-])cc(C(F)(F)F)cc12 | < 0.016 | < 0.016 | > 4000
C/C(=N\N1CCN(c2nc(=O)c3cc(C(F)(F)F)cc([N+](=O)[O-])c3s2)CC1)c1ccc(OC(F)(F)F)cc1 | < 0.016 | < 0.016 | > 4000
NNC(=O)c1ccncc1 [ISONIAZID] | > 10 | > 10 | 
O=c1nc(N2CCN(NCC3CCCC3)CC2)sc2c([N+](=O)[O-])cc(C(F)(F)F)cc12 | < 0.016 | < 0.016 | > 4000
